“Also recorded” adds a separate entry of the source.
Tests used:
c-MYC = assay: Western blot of c-MYC in pig articular chondrocytes; type: cell-based
canine OA model = assay: Canine osteoarthritis model (medial meniscal release); type: in vivo, dog; conditions: for histological (OARSI) scores of joint sections, matrix catabolism: intra-articular injections at post-operative weeks 4 and 11
Method: Single-cell sequencing using 10× Genomics. Single cell samples were prepared using Next GEM Single Cell 5′ v2 (dual index) and Chip Kit (10× Genomics) according to the manufacturer's protocol. Briefly samples were FACS sorted using DAPI to select live cells followed by resuspension in 0.04% BSA-PBS. Nearly 1200 cells/μl were added to each well of the chip with a target cell recovery estimate of 10000 cells. Thereafter Gel bead-in Emulsions (GEMs) were generated using GemCode Single-Cell Instrument. GEMs were reverse transcribed, droplets were broken and single stranded cDNA was isolated. cDNAs were cleaned up with DynaBeads and amplified. Finally, cDNAs were ligated with adapters, post-ligation products were amplified, cleaned-up with SPRIselect and purified libraries were sequenced on Novaseq.
10× Sequencing data analysis. Raw sequencing reads were processed using Partek Flow Analysis Software (build version 10.0.21.0210). Briefly, raw reads were checked for their quality, trimmed and reads with an average base quality score per position>30 were considered for alignment. Trimmed reads were aligned to the dog genome version canFam3-Ensembl_v102 using STAR-2.6.1d with default parameters. Reads with alignment percentage >75% were deduplicated based on their unique molecular identifiers (UMIs). Reads mapping to the same chromosomal location with duplicate UMIs were removed. Thereafter ‘Knee’ plot was constructed using the cumulative fraction of reads/UMIs for all barcodes. Barcodes […] the cut-off defined by the location of the knee were assigned as true cell barcodes and quantified. Further noise filtration was done by removing cells having >5% mitochondrial counts and total read counts >24,000. Genes not expressed in any cell were also removed as an additional clean-up step. Cleaned-up reads were normalized using counts per million (CPM) method followed by log-transformation generating count matrices for each sample. Samples were batch-corrected on the basis of expressed genes and mitochondrial reads percent. Count matrices were used to visualize and explore the samples in further details by generating tSNE plots, a non-linear dimensional reduction technique. This algorithm learns the underlying manifold of the data and places similar cells together in a low-dimensional space. Gene ontology enrichment analysis for the differentially expressed genes was performed using DAVID Gene Functional Classification Tool ([http://]david.abcc.ncifcrf.gov; version 6.8). Dot plots were generated in R (v4.0.3) using ggplot2(v3.3.3).
Immunohistochemistry. Histological staining for was performed on wild type (WT) mice, F814 mice and all mice that underwent destabilization of the medial meniscus (DMM). Six weeks after surgery, mice were sacrificed and joints were fixed in 10% formalin, decalcified in 10% EDTA and embedded in paraffin. For rat model, 6 weeks after partial medial meniscectomy (PMM), rats were sacrificed and joints were fixed in 10% formalin, decalcified in 10% EDTA and embedded in paraffin. A total of three 8 μm thick sections were made at a 200 μm interval by coronal sectioning. For canine model, 4 and 16 weeks after medial meniscal release (MMR), dogs were sacrificed and joints were fixed in 10% formalin, decalcified in 10% EDTA and embedded in paraffin. No animals were excluded from analysis. A microtome (Leica) was used to cut 5-μm sections for joints. H&E staining was performed to assess morphology. Safranin O/Fast Green staining, immunohistochemistry for proteolytic enzymes and Osteoarthritis Research Society International (OARSI) scoring was performed as described (41, 42). For OARSI scoring, observers performing the analysis were blinded as whether the slides were from treated or control animals. The stained samples were visually observed using LSCM (Zeiss LSM710, Carl Zeiss, Germany).
Canine osteoarthritis model. […]

## Cc1ccc(-c2csc(NC(=O)c3ccccn3)n2)cc1 [Peptide R805]
c-MYC
  protein levels of c-MYC (MYC signaling): does not activate MYC signaling
Canine OA model; 0.1 μg dose group (as in saline group)
  histological abnormalities of cartilage: focal partial- and full thickness cartilage erosions
Canine OA model; 10 ug and 1 ug doses
  cortical outline of the medial tibial plateau: almost no change in the cortical outline
Canine OA model; 10 and 1 μg groups
  bone mineral density (sclerosis) in medial compartment of the operated stifle, microCT: consistent absence of sclerosis
Canine OA model; R805-treated vs control dogs
  scRNA-seq of synoviocytes: joint inflammatory milieu: biases the joint environment away from a chronic inflammatory identity following injury; also recorded: promotes an anti-inflammatory, anti-fibrotic milieu in an injured joint
Canine OA model; canine OA model
  knee joint shape change from baseline (serial CT): clearly controlled; also recorded: dose-dependent reduction in ectopic bone formation
  pain (Colorado Pain Scores): minimal pain
  subchondral sclerosis / BMD in the contralateral, non-operated knee: did not develop subchondral sclerosis in the contralateral knee; also recorded: increased with decreasing dose of R805
Canine OA model; canine OA model, listed as CX-011
  pain (Colorado Pain Scores): profound effect on alleviating pain
Canine OA model; high and middle dose groups
  synovial membrane inflammation: mild intimal hypertrophy with occasional subintimal mononuclear cell infiltration; also recorded: reduced by mid and high doses of R805
Canine OA model; high dose group
  lameness scores: minimal pain (FIG. 5E) and lameness
Canine OA model
  histological (OARSI) scores of joint sections, matrix catabolism: dramatically reduces the appearance of OA in rat and canine models; also recorded: incremental improvement in the histological scores as the R805 dose increased
Canine OA model; listed as CX-011
  histological (OARSI) scores of joint sections, matrix catabolism: profound effect on alleviating pain and matrix catabolism
Canine OA model; low dose (as in saline treated dogs)
  synovial membrane inflammation: profound increase in subintimal vasculature, new connective tissue and cellular infiltrate

— patent US20240182526A1, “COMPOSITIONS AND METHODS FOR MODULTING INFLAMMATORY AND DEGENERATIVE DISORDER” (University of Southern California, priority 2021, published 2024)
